Assay results published in patent US10351586B2, “Cytidine derivative dimers and applications thereof” (CHANGZHOU FANGYUAN PHARMACEUTICAL CO., LTD, priority 2014, dated 2019).
Marks after values point to notes of the source that are not given here.

Columns and labels:
[1] = Body weight / toxicity of a single intraperitoneal injection in HCT-116 colon tumor-bearing nude mice; conditions: D3 350 mg/kg, D4 300 mg/kg; for Average rate of weight change of the animals / Average weight of the animals: single IP injection (QD×1), D1 and D2 400 mg/kg; for Average weight of the animals: Mean±SEM
Procedure: Corresponding test substance was weighed and put into a 5 mL glass tube. The test substance was dissolved in ethanol under the stirring by a 5 mm magnetic stirrer. After a complete dissolution, Cremophor EL was added with continuous stirring. Immediately prior to the user of the test substance, the labeled amount of physiological saline was added and stirred.
Animal experiments were performed. The animals were female Balb/c nude mice at specific pathogen free (SPF) level and were supplied from Shanghai Sippr/BK Lab Animal Ltd. (Shanghai, China). […] These animals were at the age of about 7 weeks to about 9 weeks at the beginning of the experiments and had the weight of about 18 grams to about 22 grams at the beginning of the experiment. The animals had acclimatization duration of about 5 days to about 7 days. Animals were numbered using their tail number. The animal room was maintained at about 23±2° C., 40%-70% humidity, with alternating light and dark every 12 hours.
4.2 Animal inoculation and grouping were performed. Under aseptic conditions, each nude mice was injected with 0.1 mL cell suspension into the right hind leg subcutaneously (3×10^6 cell/mouse). When the size of the tumor grew to have a volume of about 60-150 mm^3, nude mice with a similar tumor size and a desirable shape (e.g., with substantially same shape such as a substantially spherical shape, without having irregular shapes or multiple tumors grouped together) were selected and grouped. In the experiment, there were six mice in each group.
The mice in control group were injected with a mixed solution including ethanol, Cremophor EL and normal saline at a ratio of 5:5:90.
4.4 Clinical symptoms were provided. All clinical symptoms of each animal were recorded at the beginning of the experiments and during the experiments. The observation was performed at the same time every day.
After administration of the test substance, when the weight reduction was >20%, when the animal was dying, or when the tumor volume exceeds about 2800 mm^3, the animal were euthanized by applying CO2. The tumor was separated and weighed, an autopsy was performed, and visual inspection was conducted and recorded on whether there were pathological changes in the organs.

[2] = system: HCT-116 human colon cancer xenografts; experiment: Tumor growth inhibition of HCT-116 human colon cancer xenografts in nude mice; assay type: in vivo, Balb/c nude mice; conditions: for Relative tumor proliferation rate (T/C %) / Relative tumor volume (RTV) / Tumor growth inhibition rate (TGI %) / Tumor volume of HCT-116 human colon cancer xenografts: single IP injection (QD×1), D1 and D2 400 mg/kg, D3 350 mg/kg, D4 300 mg/kg; for Tumor volume of HCT-116 human colon cancer xenografts: Mean±SEM
Procedure: 2. Preparation of the test substance was performed by dissolving the test substance using the following solvents:
3. Animal experiments were performed. […] Animals were numbered using their tail number.
4.1 Tumor cells were human HCT-116 colon cancer cells purchased from the Institute of Cell Biology, Chinese Academy of Sciences (Beijing, China). F-12 medium (containing 10% FBS) was used to culture cells in a carbon dioxide incubator at about 37° C., saturated humidity, under 5% CO2 and 95% air. Before inoculation, cells in logarithmic growth phase were collected. After digested by 0.25% trypsin, the cells were washed with PBS once. The cells were resuspended with serum-free medium and counted. Serum-free medium were used for cell resuspension, until the cell concentration was adjusted to about 3×10^7 cell/mL.
4.2 Animal inoculation and grouping were performed.
The diameters (D) of the tumor nodules were measured three times a week with a circle sizer ruler. In addition, the following formula was applied to calculate the volume of the tumor nodules (V): V=[…](D/2)^3 generally for a spherical shape. Evaluation indexes of antitumor activity were tumor growth inhibition rate TGI (%) and relative tumor proliferation rate T/C (%).
The calculation formula of TGI was: TGI (%)=(Vcontrol−VTreatment)/Vcontrol)×100%. The relative tumor volume (RTV) was calculated by: RTV=Vt/V0, where V0 is the tumor volume at the time of group administration, and Vt is the tumor volume at the time of measurement.
The mice were weighed 3 times every week.
4.5 Data and statistical analysis were provided.

[3] = D1 400 mg/kg Day 7, D2 400 mg/kg Day 9, D3 350 mg/kg Day 11, D4 300 mg/kg Day 11, single IP

CCCCOC(=O)Nc1ccn([C@H]2O[C@@H](COC(=O)CCC(=O)OC[C@H]3O[C@@H](n4ccc(NC(=O)OCCCC)nc4=O)C(F)(F)[C@@H]3O)[C@H](O)C2(F)F)c(=O)n1 (stereo in doubt) [Compound D2, 1,5-di-[4-N-(n-butoxycarbonyl)-2′-deoxy-2′,2′-difluoro-cytidine]glutarate]
Average rate of weight change of the animals ([1]; Day 0): 0.00%
Average weight of the animals ([1]; Day 0): 19.87 ± 0.25 g
Average rate of weight change of the animals ([1]; Day 1): −0.08 ± 0.74%
Average weight of the animals ([1]; Day 1): 19.85 ± 0.28 g
Average rate of weight change of the animals ([1]; Day 2): −8.54 ± 1.31 %
Average weight of the animals ([1]; Day 2): 18.17 ± 0.31 g
Average rate of weight change of the animals ([1]; Day 4): −10.63 ± 2.13 %
Average weight of the animals ([1]; Day 4): 17.75 ± 0.44 g
Average rate of weight change of the animals ([1]; Day 7): −6.98 ± 1.43%
Average weight of the animals ([1]; Day 7): 18.48 ± 0.40 g
Average rate of weight change of the animals ([1]; Day 9): 0.21 ± 1.42%
Average weight of the animals ([1]; Day 9): 19.92 ± 0.45 g
Average rate of weight change of the animals ([1]; Day 11): 2.72 ± 1.85%
Average weight of the animals ([1]; Day 11): 20.42 ± 0.53 g
Average rate of weight change of the animals ([1]; Day 14): 4.87 ± 2.08 %
Average weight of the animals ([1]; Day 14): 20.85 ± 0.60 g
Average rate of weight change of the animals ([1]; Day 16): 6.32 ± 1.65 %
Average weight of the animals ([1]; Day 16): 21.13 ± 0.51 g
Average rate of weight change of the animals ([1]; Day 18): 8.83 ± 1.43 %
Average weight of the animals ([1]; Day 18): 21.63 ± 0.51 g
Average rate of weight change of the animals ([1]; Day 21): 4.22 ± 1.23 %
Average weight of the animals ([1]; Day 21): 20.72 ± 0.46 g
Average rate of weight change of the animals ([1]; Day 23): 3.66 ± 1.05 %
Average weight of the animals ([1]; Day 23): 20.60 ± 0.40 g
Average rate of weight change of the animals ([1]; Day 25): 5.07 ± 1.44%
Average weight of the animals ([1]; Day 25): 20.88 ± 0.48 g
Average rate of weight change of the animals ([1]; Day 28): 1.57 ± 1.50%
Average weight of the animals ([1]; Day 28): 20.18 ± 0.44 g
Average rate of weight change of the animals ([1]; Day 30): 2.28 ± 1.75%
Average weight of the animals ([1]; Day 30): 20.33 ± 0.55 g
Toxicity in tumor-bearing mice (in words) ([1]; single IP injection, D2 400 mg/kg, judged from body weight versus control): no toxicity
Relative tumor proliferation rate, minimum [2, 3]: 14.41%
Tumor inhibition rate, maximum [2, 3]: 94.79%
Relative tumor proliferation rate (T/C %) ([2]; Day 0): 0.00%
Relative tumor volume (RTV) ([2]; Day 0): 1.00
Tumor growth inhibition rate (TGI %) ([2]; Day 0): 0.00%
Tumor volume of HCT-116 human colon cancer xenografts ([2]; Day 0): 53.09 ± 9.33** mm^3
Relative tumor proliferation rate (T/C %) ([2]; Day 1): 50.15%
Relative tumor volume (RTV) ([2]; Day 1): 0.89 ± 0.10
Tumor growth inhibition rate (TGI %) ([2]; Day 1): 71.87%
Tumor volume of HCT-116 human colon cancer xenografts ([2]; Day 1): 50.78 ± 14.16** mm^3
Relative tumor proliferation rate (T/C %) ([2]; Day 2): 40.78%
Relative tumor volume (RTV) ([2]; Day 2): 0.95 ± 0.15
Tumor growth inhibition rate (TGI %) ([2]; Day 2): 74.81%
Tumor volume of HCT-116 human colon cancer xenografts ([2]; Day 2): 55.89 ± 18.82** mm^3
Relative tumor proliferation rate (T/C %) ([2]; Day 4): 25.19%
Relative tumor volume (RTV) ([2]; Day 4): 0.73 ± 0.19
Tumor growth inhibition rate (TGI %) ([2]; Day 4): 84.53%
Tumor volume of HCT-116 human colon cancer xenografts ([2]; Day 4): 45.96 ± 20.25** mm^3
Relative tumor proliferation rate (T/C %) ([2]; Day 7): 16.63%
Relative tumor volume (RTV) ([2]; Day 7): 0.52 ± 0.23
Tumor growth inhibition rate (TGI %) ([2]; Day 7): 91.71%
Tumor volume of HCT-116 human colon cancer xenografts ([2]; Day 7): 35.87 ± 21.79** mm^3
Relative tumor proliferation rate (T/C %) ([2]; Day 9): 14.41%
Relative tumor volume (RTV) ([2]; Day 9): 0.46 ± 0.17
Tumor growth inhibition rate (TGI %) ([2]; Day 9): 94.79%
Tumor volume of HCT-116 human colon cancer xenografts ([2]; Day 9): 30.75 ± 16.74** mm^3
Relative tumor proliferation rate (T/C %) ([2]; Day 11): 16.77%
Relative tumor volume (RTV) ([2]; Day 11): 0.87 ± 0.35
Tumor growth inhibition rate (TGI %) ([2]; Day 11): 94.13%
Tumor volume of HCT-116 human colon cancer xenografts ([2]; Day 11): 57.29 ± 33.0** mm^3
Relative tumor proliferation rate (T/C %) ([2]; Day 14): 18.33%
Relative tumor volume (RTV) ([2]; Day 14): 1.80 ± 0.69
Tumor growth inhibition rate (TGI %) ([2]; Day 14): 91.88%
Tumor volume of HCT-116 human colon cancer xenografts ([2]; Day 14): 116.87 ± 66.85** mm^3
Relative tumor proliferation rate (T/C %) ([2]; Day 16): 21.64%
Relative tumor volume (RTV) ([2]; Day 16): 2.66 ± 0.88
Tumor growth inhibition rate (TGI %) ([2]; Day 16): 90.63%
Tumor volume of HCT-116 human colon cancer xenografts ([2]; Day 16): 169.73 ± 88.15** mm^3
Relative tumor proliferation rate (T/C %) ([2]; Day 18): 21.99%
Relative tumor volume (RTV) ([2]; Day 18): 4.20 ± 1.02
Tumor growth inhibition rate (TGI %) ([2]; Day 18): 86.88%
Tumor volume of HCT-116 human colon cancer xenografts ([2]; Day 18): 262.10 ± 111.14** mm^3
Relative tumor proliferation rate (T/C %) ([2]; Day 21): 34.57%
Relative tumor volume (RTV) ([2]; Day 21): 8.09 ± 1.52
Tumor growth inhibition rate (TGI %) ([2]; Day 21): 79.99%
Tumor volume of HCT-116 human colon cancer xenografts ([2]; Day 21): 489.13 ± 174.91 mm^3
Relative tumor proliferation rate (T/C %) ([2]; Day 23): 42.87%
Relative tumor volume (RTV) ([2]; Day 23): 8.48 ± 1.37
Tumor growth inhibition rate (TGI %) ([2]; Day 23): 78.74%
Tumor volume of HCT-116 human colon cancer xenografts ([2]; Day 23): 501.98 ± 170.25 mm^3
Relative tumor proliferation rate (T/C %) ([2]; Day 25): 44.51%
Relative tumor volume (RTV) ([2]; Day 25): 9.62 ± 1.48
Tumor growth inhibition rate (TGI %) ([2]; Day 25): 77.96%
Tumor volume of HCT-116 human colon cancer xenografts ([2]; Day 25): 569.05 ± 189.18 mm^3
Relative tumor proliferation rate (T/C %) ([2]; Day 28): 56.94%
Relative tumor volume (RTV) ([2]; Day 28): 12.03 ± 1.50
Tumor growth inhibition rate (TGI %) ([2]; Day 28): 74.35%
Tumor volume of HCT-116 human colon cancer xenografts ([2]; Day 28): 689.78 ± 203.52 mm^3
Relative tumor proliferation rate (T/C %) ([2]; Day 30): 63.87%
Relative tumor volume (RTV) ([2]; Day 30): 15.85 ± 1.92
Tumor growth inhibition rate (TGI %) ([2]; Day 30): 67.91%
Tumor volume of HCT-116 human colon cancer xenografts ([2]; Day 30): 900.52 ± 250.44 mm^3
Inhibition of growth of HCT-116 human colon cancer xenografts (in words) ([2]; single IP injection, 300-400 mg/kg): higher tumor inhibition rates
